This is an account of results in article PMC4117768, “Conjugation with polyamines enhances the antibacterial and anticancer activity of chloramphenicol” (Nucleic Acids Research, 2014).

The test system of assay [1] is complex C (poly(U)-programmed ribosomes from E. coli bearing Ac[3H]Phe-tRNA at the P-site), peptidyl transferase. Kind of assay: Inhibition of AcPhe-puromycin synthesis (puromycin reaction, peptide bond formation). The assay is classed as biochemical. The conditions noted are these: for Ki: 25°C, buffer A; for koff: isomerization C*I to CI, non linear regression fitting; for potency relative to CAM, based on Kik7/(k6 + k7): overall two-step inhibition of the puromycin reaction. As for the experimental part:
Isolation of 70S ribosomes from E. coli K12 cells and preparation of Ac[^3H]Phe-tRNA^Phe charged to 80% were performed, as described previously ([23]). The post-translocation complex of poly(U)-programmed ribosomes (complex C), bearing tRNA^Phe at the E-site and Ac[^3H]Phe-tRNA at the P-site was prepared in buffer A (100 mM Tris-HCl pH 7.2, 6 mM (CH3COO)2Mg, 100 mM NH4Cl and 6 mM 2-mercaptoethanol). The percentage of active ribosomes in AcPhe-tRNA binding was 72%. This ribosomal population was more than 90% reactive toward puromycin.
The reaction between complex C and excess puromycin (S), a pseudo-substrate which binds to the ribosomal A-site, was performed at 25°C in buffer A and analyzed as described in detail elsewhere ([11]). Briefly, since the reaction followed first-order kinetics, the first-order rate constant kobs at each concentration of puromycin was determined by fitting the corrected x-values into Equation ([1]), (1) where x is the product Ac[^3H]Phe-puromycin expressed as the percentage of complex C radioactivity added in the reaction mixture and t the time of the reaction. kobs is related to the puromycin concentration, [S], by the relationship, (2) where kcat is the catalytic rate constant of PTase and KS the affinity constant of puromycin for complex C.
In the presence of CAM–polyamine conjugates, biphasic logarithmic time plots were obtained. The slope of the straight line through the origin was taken as the value of the apparent rate constant, kobs(early), at the early phase of the reaction, while the slope of the second straight line was taken as the value of the rate constant, kobs(late), at the late phase of the reaction.

Assay [2] has as its system E. coli (A2058G) TA531 cells with pKK35 plasmid, mutated 23S rRNA. Kind of assay: Growth inhibition of bacterial cell cultures, CAM-resistant mutant. It counts as cell-based. Conditions: Escherichia coli, read-out: IC50 (inhibit the growth by half). The text has this:
(§1) CAM free base [D-(-)threo-1-(p-nitrophenyl)-2-amino-1,3-propanediol], puromycin dihydrochloride, tRNA^Phe from E. coli, dimethyl sulfate (DMS), DMS stop solution and tRNA^Phe from E. coli were purchased from Sigma-Aldrich. Kethoxal and 1-cyclohexyl-3-(2-morpholinoethyl)-carbodiimide metho-p-toluene sulfate (CMCT) were from MP Biomedicals and Fluka Biochemicals, respectively. AMV reverse transcriptase was supplied by Roche, dNTPs by HT Biotechnology, and ddNTPs by Jena Bioscience. L-[2,3,4,5,6 -^3H]Phenylalanine was from Amersham Biosciences and [α-^32P]ATP from Izotop. Cellulose nitrate filters (type HA; 0.45 μm pore size) were from Millipore Corp. Details in experimental procedures of synthesis and physical and spectra data for the synthesized compounds will be published elsewhere. […] The mesothelioma cell line ZL34 and its immortalized counterpart cell line Met5A, were kindly provided by Prof. G. Stathopoulos (University of Patras).
(§2) S. aureus or E. coli cells (400 μl of a 0.700 OD560 preculture) containing wild-type or mutant ribosomes were added in 3.6 ml of LB (Luria Broth) medium and grown at 37°C in the presence or absence of CAM or PA–CAM conjugates until the optical density of the control culture (grown in the absence of drug) reached the value 0.700 at 560 nm. From the growth curves, the IC50 value for each strain was estimated as the concentration of the drug that is required to inhibit the growth by half.

Assay [3] concerns E. coli (A2503C) TA531 cells with pKK35 plasmid, mutated 23S rRNA. The assay is described as above. The assay is classed as cell-based. The conditions noted are these: Escherichia coli, read-out: IC50 (inhibit the growth by half).
Description: as §1, §2

Another assay relates to wild-type S. aureus. In words: Growth inhibition of bacterial cell cultures. It counts as cell-based. Conditions: Staphylococcus aureus, read-out: IC50 (inhibit the growth by half). As for the experimental part: as §2
The next assay deals with wild-type E. coli. Kind of assay: Growth inhibition of bacterial cell cultures. It counts as cell-based. The conditions noted are these: for IC50: Escherichia coli, read-out: IC50 (inhibit the growth by half); for IC50/IC50(puro): wild-type E. coli, IC50(puro) = concentration causing 50% inhibition in peptide-bond formation at 2 mM puromycin. As for the experimental part:
as §2

The subject of assay [4] is central loop of Domain V of 23S rRNA, E. coli ribosomes. Kind of assay: Time-resolved footprinting of PA–CAM conjugates bound to ribosomes (DMS, kethoxal, CMCT probing, primer extension). It counts as binding. As for the experimental part:
Complexes RI and R*I were then probed at 37°C for 10 min with DMS, kethoxal or CMCT, as described previously ([30]). The modified sites in 23S rRNA were then analyzed by primer extension with reverse transcriptase, according to Moazed et al. ([30]). […] Extension products were run on 6% polyacrylamide/7M urea gels. Identification of the modified nucleotides, quantitative scanning of the gels and normalization of the band intensities were made as previously described ([4]). The values indicated in Table 2 denote the ratio between the normalized intensity of a band of interest and the normalized intensity of the corresponding band in the control lane (ribosomes non-treated with drugs).

Setting [5] is: early phase of the reaction (encounter complex CI).
Setting [6] is: late phase of the reaction (complex C*I).
The mark [7] stands for this setting: R*I binding state (3 min), conjugate at 50 × Ki, 25°C, ratio to control lane R.
Where [8] appears, read: RI binding state (2 s), conjugate at 50 × Ki, 25°C, ratio to control lane R.

Where two headings read alike, the source gives them in different places. Marks after values point to notes of the source that are not given here. A value given as a limit tells only on which side of the number the result lay.

Usually Ki stands for the dissociation constant of the complex between target and ligand, obtained from inhibition or displacement. Usually koff stands for the rate constant with which the complex falls apart. High values mean fast dissociation, low ones slow dissociation. As usually defined, the IC50 is the concentration needed to halve the response being measured.

Turning to `NCCCNCCCCNCCCNC(=O)CCC(=O)N[C@H](CO)[C@H](O)c1ccc([N+](=O)[O-])cc1` [Compound 2], the inhibitory constant (Ki) was 2.2 ± 0.2 µM in assay [1] (setting [5]) and 0.75 ± 0.06 µM in assay [1] (setting [6]). Moreover, the off-rate (koff) in assay [1] is 0.0198 ± 0.00267 s⁻¹. Besides, the “potency relative to CAM, based on Kik7/(k6 + k7)” value (from here on “potency relative to CAM, based”) in assay [1] is listed as “equal”. In addition, the IC50 is over 100 µM in assay [2], over 100 µM in assay [3], 45.3 ± 5.5 µM in the assay on wild-type S. aureus and over 100 µM with wild-type E. coli. In the assay on wild-type E. coli, the “IC50/IC50(puro)” value is given as over 22.2.
Turning to `O=C(N[C@H](CO)[C@H](O)c1ccc([N+](=O)[O-])cc1)c1nc[nH]n1` [Compound 8], the inhibition constant Ki in assay [1] (setting [5]) came out at 3 ± 0.3 µM; in assay [1] (setting [6]) it was 1 ± 0.1 µM. Further, the dissociation rate constant (koff) in assay [1] was 0.0183 ± 0.002 s⁻¹. In assay [1], the “potency relative to CAM, based” value is “equal”. Further, the 50% inhibitory concentration (IC50) was over 300 µM in assay [2], over 300 µM in assay [3], over 100 µM with wild-type S. aureus and over 300 µM in the assay with wild-type E. coli. For the same compound, the “IC50/IC50(puro)” value with wild-type E. coli is recorded as over 50.
In assay [1] (setting [5]), `O=C(CCC(=O)N[C@H](CO)[C@H](O)c1ccc([N+](=O)[O-])cc1)NCCCNCCCCN(Cc1ccccc1)Cc1ccccc1` [Compound 5] gave a Ki of 2.1 ± 0.17 µM. Moreover, in assay [1], the koff turned out to be 0.0148 ± 0.0013 s⁻¹ and the “potency relative to CAM, based” value turned out to be 1.5 fold. The inhibition constant (Ki) in assay [1] (setting [6]) is 0.6 ± 0.05 µM. Also, in assay [4] (setting [7]), the “Relative reactivity of nucleoside A2058” value came to 0.95 ± 0.08, the “Relative reactivity of nucleoside A2059” value was determined as 1.00 ± 0.08, the “Relative reactivity of nucleoside A2062” value was determined as 1.00 ± 0.09 and the “Relative reactivity of nucleoside A2451” value is 0.70 ± 0.05^b. Besides, in assay [4] (setting [7]), the “Relative reactivity of nucleoside A2602” value stood at 0.89 ± 0.07, the “Relative reactivity of nucleoside G2505” value is 0.50 ± 0.15^b,c, the “Relative reactivity of nucleoside U2506” value was 0.70 ± 0.06^b and the “Relative reactivity of nucleoside U2609” value was 0.90 ± 0.08. In assay [4] (setting [8]), the “Relative reactivity of nucleoside A2058” value turned out to be 1.10 ± 0.09, the “Relative reactivity of nucleoside A2059” value is 0.90 ± 0.08, the “Relative reactivity of nucleoside A2062” value was 1.00 ± 0.06 and the “Relative reactivity of nucleoside A2451” value is on record as 0.65 ± 0.04^b. Moreover, in assay [4] (setting [8]), the “Relative reactivity of nucleoside A2602” value is on record as 1.00 ± 0.06, the “Relative reactivity of nucleoside G2505” value is reported as 0.74 ± 0.06^b, the “Relative reactivity of nucleoside U2506” value is on record as 0.75 ± 0.05^b and the “Relative reactivity of nucleoside U2585” value worked out at 0.92 ± 0.10. For the same compound, in assay [4] (setting [8]), the “Relative reactivity of nucleoside U2609” value was determined as 1.00 ± 0.10. For the same compound, the IC50 in assay [2] came out at 32.3 ± 3 µM. Also, in assay [3], the IC50 stood at 37.1 ± 3.1 µM. The IC50 in the assay on wild-type S. aureus is 13.7 ± 1.2 µM. In addition, the IC50 with wild-type E. coli (WT-E. coli, LB medium, 37°C) amounted to 35.5 ± 3.6 µM. Further, the “IC50/IC50(puro)” value in the assay with wild-type E. coli is 9.86 ± 1.29.
As to `NCCCCN(CCCN)C(=O)CCC(=O)N[C@H](CO)[C@H](O)c1ccc([N+](=O)[O-])cc1` [Compound 3], the results for the inhibition constant (Ki) in assay [1] (setting [5]) and in assay [1] (setting [6]) were 3.6 ± 0.3 µM and 1.2 ± 0.1 µM, respectively. For the same compound, the off-rate (koff) in assay [1] came to 0.021 ± 0.00217 s⁻¹. Also, the “potency relative to CAM, based” value in assay [1] was “lower potency”. In assay [4] (2 s or 3 min incubation, Supplementary Figure S6), the “protection of U2585 against CMCT (footprinting)” value is on record as “fails to detect a similar protection”. Also, the IC50 is over 150 µM in assay [2], over 150 µM in assay [3], 12.7 ± 1 µM in the assay with wild-type S. aureus and over 150 µM in the assay on wild-type E. coli. In addition, the “IC50/IC50(puro)” value with wild-type E. coli is listed as over 20.8.
As for `O=C(CCNC(=O)c1nc[nH]n1)N[C@H](CO)[C@H](O)c1ccc([N+](=O)[O-])cc1` [Compound 9], the Ki in assay [1] (setting [5]) was 12 ± 1.08 µM; in assay [1] (setting [6]), 4 ± 0.44 µM. Besides, the off-rate (koff) in assay [1] amounted to 0.014 ± 0.0013 s⁻¹. The “potency relative to CAM, based” value in assay [1] is “lower potency”. Moreover, the concentration for half-maximal inhibition (IC50) is over 200 µM in assay [2], over 200 µM in assay [3], 66 ± 4.6 µM with wild-type S. aureus and over 200 µM with wild-type E. coli. Further, the “IC50/IC50(puro)” value in the assay on wild-type E. coli is recorded as over 8.3.
For the compound `NCCCCNC(=O)CCC(=O)N[C@H](CO)[C@H](O)c1ccc([N+](=O)[O-])cc1` [Compound 1], the Ki stood at 3.37 ± 0.3 µM in assay [1] (setting [5]) and 0.9 ± 0.06 µM in assay [1] (setting [6]). In assay [1], this compound gave an off-rate (koff) of 0.0175 ± 0.00167 s⁻¹. Also, the “potency relative to CAM, based” value in assay [1] is “equal”. The 50% inhibitory concentration (IC50) (in assay [2]; in assay [3]; with wild-type S. aureus; in the assay with wild-type E. coli) was over 200 µM throughout. The “IC50/IC50(puro)” value in the assay with wild-type E. coli is over 37.0.
Consider `NCCCCNC(=O)c1ccccc1C(=O)N[C@H](CO)[C@H](O)c1ccc([N+](=O)[O-])cc1` [Compound 6], for which the inhibition constant (Ki) in assay [1] (setting [5]) stood at 214 ± 17.1 µM; in assay [1] (setting [6]), 8.45 ± 0.67 µM. This compound displayed a koff in assay [1] of 0.0125 ± 0.001 s⁻¹. The “potency relative to CAM, based” value in assay [1] was “lower potency”. The 50% inhibitory concentration (IC50) (in assay [2]; in assay [3]; in the assay with wild-type S. aureus; in the assay with wild-type E. coli) was over 200 µM throughout.
